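Cells were grown in 96-well plates and exposed to each compound for 48 hours at five concentrations; endpoints were interpolated linearly between bracketing concentrations, or set to the highest concentration if not reached. Abbreviation: GI50, concentration required for 50% inhibition of growth. At the TGI there is no net growth.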 Some results are limits rather than exact numbers.

Among the test systems are 786-0 renal; NCI-H23 lung; SN12C renal; COLO 205 colon; A549 NSCLC; SK-MEL-28 melanoma; KM12 colon; U251 CNS; SK-MEL-5 melanoma; SF-539 CNS.
Assay in all cases: inhibition of tumour cell growth, NCI panel, 48 h

Take `O=C(NCCCNc1cc(-c2cn(-c3ccccc3)nc2-c2cccc(O)c2)ccn1)c1ccccc1`: the GI50 in the test with 786-0 renal was 2.04 µM; with NCI-H23 lung, 3.04 µM; in the test with SN12C renal, 6 µM; in the test on COLO 205 colon it was 1.71 µM; in the test with A549 NSCLC, 4.62 µM; in the test on SK-MEL-28 melanoma it was 2.18 µM. In addition, the GI50 with KM12 colon is 3.34 µM; in the test on U251 CNS, 4.12 µM; with SK-MEL-5 melanoma, 1.49 µM; in the test with SF-539 CNS, 3.02 µM. Moreover, the TGI was 4.69 µM with 786-0 renal; 26.6 µM in the test on NCI-H23 lung; > 100 µM in the test on SN12C renal; 3.67 µM in the test on COLO 205 colon; 34.4 µM in the test on A549 NSCLC; 6.08 µM in the test on SK-MEL-28 melanoma. Moreover, the TGI is 14.8 µM in the test on KM12 colon, 21 µM with U251 CNS, 3.12 µM in the test on SK-MEL-5 melanoma and 10.3 µM in the test on SF-539 CNS.

In the case of `COCC(=O)CP(=O)(OC)OC`, the TGI with 786-0 renal, with NCI-H23 lung, in the test with SN12C renal, with COLO 205 colon, in the test with A549 NSCLC and in the test on SK-MEL-28 melanoma was > 100 µM throughout. Further, the TGI in the test with KM12 colon, in the test on U251 CNS, in the test with SK-MEL-5 melanoma and with SF-539 CNS was > 100 µM in each case.

As to `COC(=O)c1sc(C(=O)OC)c2c1CSC2`, the TGI with 786-0 renal, in the test on NCI-H23 lung, with SN12C renal, in the test with COLO 205 colon, in the test with A549 NSCLC and in the test on SK-MEL-28 melanoma was > 100 µM each time. In addition, the TGI is > 100 µM in the test on KM12 colon, > 81 µM with U251 CNS, > 100 µM in the test on SK-MEL-5 melanoma and > 100 µM in the test on SF-539 CNS.

For the compound `COc1ccc(/C=C/c2nc(NCCCN(C)C)c3ccccc3n2)cc1`, the GI50 was 13.3 µM with 786-0 renal; 5.43 µM in the test on NCI-H23 lung; 11.8 µM in the test on SN12C renal; 1.8 µM in the test on COLO 205 colon; 2.62 µM in the test with A549 NSCLC; 4.57 µM with SK-MEL-28 melanoma. In addition, the GI50 in the test with KM12 colon was 1.73 µM; with U251 CNS, 1.79 µM; in the test on SK-MEL-5 melanoma, 1.71 µM; with SF-539 CNS, 1.69 µM. In addition, the TGI in the test on 786-0 renal was found to be 26.7 µM; with NCI-H23 lung, 11.5 µM; in the test on SN12C renal it was 29.3 µM; in the test with COLO 205 colon it was 3.3 µM; in the test on A549 NSCLC it was 7.65 µM; in the test on SK-MEL-28 melanoma, 9 µM. For the same compound, the TGI was 3.13 µM in the test with KM12 colon, 3.37 µM with U251 CNS, 3.27 µM with SK-MEL-5 melanoma and 3.15 µM with SF-539 CNS.

In the case of `CCCCCCCCCCN(CCCCCCCCCC)CC(=O)c1ccc2cc(Br)c3ccccc3c2c1`, the GI50 is 1.81 µM in the test on 786-0 renal; 1.78 µM in the test with NCI-H23 lung; 1.6 µM with SN12C renal; 1.66 µM in the test on COLO 205 colon; 4.15 µM with A549 NSCLC; 1.84 µM with SK-MEL-28 melanoma. In addition, the GI50 in the test on KM12 colon was 1.88 µM; with U251 CNS, 1.91 µM; in the test with SK-MEL-5 melanoma, 1.74 µM; in the test on SF-539 CNS, 2.05 µM. In addition, the TGI with 786-0 renal stood at 3.39 µM; in the test with NCI-H23 lung, 3.4 µM; with SN12C renal it was 3.33 µM; in the test with COLO 205 colon, 3.16 µM; with A549 NSCLC, 14.4 µM; with SK-MEL-28 melanoma, 3.32 µM. The TGI came out at 3.66 µM with KM12 colon, 3.55 µM in the test on U251 CNS, 3.28 µM with SK-MEL-5 melanoma and 3.7 µM in the test on SF-539 CNS.

For `CCOC(=O)C(CO)c1nc2c([nH]c1=O)c(=O)n(C)c(=O)n2C` (stereo not given), the TGI with 786-0 renal, in the test with NCI-H23 lung, with SN12C renal, in the test on COLO 205 colon, in the test on A549 NSCLC and in the test with SK-MEL-28 melanoma was > 100 µM throughout. The TGI with KM12 colon, in the test with U251 CNS, in the test with SK-MEL-5 melanoma and with SF-539 CNS was > 100 µM each time.

In the case of `Cc1c(C(=O)NCCO)[n+](=O)c2cc(Cl)ccc2n1[O-]`, the TGI with 786-0 renal, with NCI-H23 lung, with SN12C renal, with COLO 205 colon, in the test with A549 NSCLC and with SK-MEL-28 melanoma was > 100 µM in each case. Also, the TGI with KM12 colon, with U251 CNS, in the test on SK-MEL-5 melanoma and in the test with SF-539 CNS was > 100 µM each time.

Turning to `N#Cc1c(-c2ccccc2)cc(-c2ccc(Nc3nc(Nc4ccc(Cl)cc4)nc(Nc4ccc(Cl)cc4)n3)cc2)nc1N`, the GI50 in the test on 786-0 renal was 1.91 µM; with NCI-H23 lung, 6.14 µM; with SN12C renal, 3.37 µM; with COLO 205 colon, 1.78 µM; in the test on A549 NSCLC, 11 µM; in the test with SK-MEL-28 melanoma it was 1.22 µM. The GI50 was 2.91 µM in the test on KM12 colon, 2.63 µM with U251 CNS, 1.42 µM in the test with SK-MEL-5 melanoma and 1.69 µM in the test on SF-539 CNS. The TGI in the test with 786-0 renal is 3.46 µM; in the test on NCI-H23 lung, 61.4 µM; in the test on SN12C renal, > 100 µM; with COLO 205 colon, 3.96 µM; with A549 NSCLC it was > 100 µM; with SK-MEL-28 melanoma, 2.8 µM. Besides, the TGI came out at 11.4 µM in the test with KM12 colon, 10.2 µM in the test with U251 CNS, 2.78 µM in the test on SK-MEL-5 melanoma and 3.24 µM in the test with SF-539 CNS.

With `C#CC1(O)C(COP(=O)(O)OC2CC(n3cc(F)c(=O)[nH]c3=O)OC2CO)OC(n2ccc(N)nc2=O)C1O` (stereo not given), the GI50 with 786-0 renal is < 0.0117 µM; in the test on NCI-H23 lung, < 0.026 µM; in the test with SN12C renal, < 0.0106 µM; in the test on COLO 205 colon, < 0.01 µM; in the test on A549 NSCLC, < 0.01 µM; with SK-MEL-28 melanoma it was 0.0474 µM. Besides, the GI50 in the test on KM12 colon was < 0.01 µM; in the test with U251 CNS it was < 0.0138 µM; with SK-MEL-5 melanoma, < 0.0154 µM; in the test on SF-539 CNS, < 0.0105 µM. The TGI was > 100 µM with 786-0 renal; > 38 µM in the test with NCI-H23 lung; > 100 µM with SN12C renal; 1.61 µM with COLO 205 colon; > 54.4 µM in the test with A549 NSCLC; 1.72 µM in the test on SK-MEL-28 melanoma. Further, the TGI with KM12 colon is > 29 µM; in the test on U251 CNS, > 100 µM; in the test with SK-MEL-5 melanoma, 0.196 µM; in the test on SF-539 CNS it was 0.22 µM.

The values are drawn from PubChem BioAssay (NCI).
